Test results from PubChem BioAssay AID2060494 (Molecular Pharmacology Branch, DTP, NCI, 2025).

System: 435261-313-R-J1-PDC complex spheroid viability
Experiment: Anticancer human tumor 435261-313-R-J1-PDC patient-derived colon adenocarcinoma cell line growth inhibition [GQUAD]
Details: for IC50: curve of first compound; for viability, T/C: stronger effect = lower value
Summary of the method: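 Viability of tumor cells grown as complex spheroids with endothelial and stromal cells, exposed to drug combinations. Top concentration at or near clinical Cmax (else 10 microM), diluted in half-log increments.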

[1] = second compound 0.0316 µM, first compound 0.0316 µM
[2] = second compound 0.0316 µM, first compound 0.1 µM
[3] = second compound 0.0316 µM, first compound 0.316 µM
[4] = second compound 0.0316 µM, first compound 1 µM
[5] = second compound 0.0316 µM, first compound 3.16 µM
[6] = second compound 0.0316 µM, first compound 10 µM
[7] = second compound 0.1 µM, first compound 0.0316 µM
[8] = second compound 0.1 µM, first compound 0.1 µM
[9] = second compound 0.1 µM, first compound 0.316 µM
[10] = second compound 0.1 µM, first compound 1 µM
[11] = second compound 0.1 µM, first compound 3.16 µM
[12] = second compound 0.1 µM, first compound 10 µM
[13] = second compound 0.316 µM, first compound 0.0316 µM
[14] = second compound 0.316 µM, first compound 0.1 µM
[15] = second compound 0.316 µM, first compound 0.316 µM
[16] = second compound 0.316 µM, first compound 1 µM
[17] = second compound 0.316 µM, first compound 3.16 µM
[18] = second compound 0.316 µM, first compound 10 µM
[19] = second compound 1 µM, first compound 0.0316 µM
[20] = second compound 1 µM, first compound 0.1 µM
[21] = second compound 1 µM, first compound 0.316 µM
[22] = second compound 1 µM, first compound 1 µM
[23] = second compound 1 µM, first compound 3.16 µM
[24] = second compound 1 µM, first compound 10 µM
[25] = second compound 3.16 µM, first compound 0.0316 µM
[26] = second compound 3.16 µM, first compound 0.1 µM
[27] = second compound 3.16 µM, first compound 0.316 µM
[28] = second compound 3.16 µM, first compound 1 µM
[29] = second compound 3.16 µM, first compound 3.16 µM
[30] = second compound 3.16 µM, first compound 10 µM
[31] = second compound 10 µM, first compound 0.0316 µM
[32] = second compound 10 µM, first compound 0.1 µM
[33] = second compound 10 µM, first compound 0.316 µM
[34] = second compound 10 µM, first compound 1 µM
[35] = second compound 10 µM, first compound 3.16 µM
[36] = second compound 10 µM, first compound 10 µM
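Further: spheroids exposed to the agents for seven days before readout.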
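Wherever viability, T/C is given: percent of vehicle control viability with DMSO wells as 100%.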

C#Cc1c(F)ccc2cc(O)cc(-c3ncc4c(N5CC6CCC(C5)N6)nc(OCC56CCCN5CC(F)C6)nc4c3F)c12 (stereo unspecified) + CN(C)c1ccc(Nc2c3ccc(NC(=O)CCN4CCCC4)cc3nc3cc(NC(=O)CCN4CCCC4)ccc23)cc1
IC50 (second compound 0.0316 µM): > 10 µM
IC50 (second compound 0.1 µM): > 10 µM
IC50 (second compound 0.316 µM): > 10 µM
IC50 (second compound 1 µM): > 10 µM
IC50 (second compound 3.16 µM): 3.58 µM
IC50 (second compound 10 µM): 0.199 µM
viability, T/C [1]: 77%
viability, T/C [2]: 118%
viability, T/C [3]: 114%
viability, T/C [4]: 58.1%
viability, T/C [5]: 64.9%
viability, T/C [6]: 48.8%
viability, T/C [7]: 123%
viability, T/C [8]: 110%
viability, T/C [9]: 94.6%
viability, T/C [10]: 99.6%
viability, T/C [11]: 66.1%
viability, T/C [12]: 60.5%
viability, T/C [13]: 89.3%
viability, T/C [14]: 130%
viability, T/C [15]: 82%
viability, T/C [16]: 78%
viability, T/C [17]: 50.7%
viability, T/C [18]: 64%
viability, T/C [19]: 82.5%
viability, T/C [20]: 87.9%
viability, T/C [21]: 103%
viability, T/C [22]: 64.5%
viability, T/C [23]: 62.4%
viability, T/C [24]: 54.7%
viability, T/C [25]: 67.8%
viability, T/C [26]: 65.8%
viability, T/C [27]: 42.2%
viability, T/C [28]: 42.5%
viability, T/C [29]: 56.7%
viability, T/C [30]: 9.31%
viability, T/C [31]: 44.2%
viability, T/C [32]: 73.5%
viability, T/C [33]: 42.1%
viability, T/C [34]: 23.6%
viability, T/C [35]: 19.8%
viability, T/C [36]: 0.2%

C=CC(=O)N1CCN(c2nc(=O)n(-c3c(C)ccnc3C(C)C)c3nc(-c4c(O)cccc4F)c(F)cc23)C(C)C1 (stereo unspecified) + CN(C)c1ccc(Nc2c3ccc(NC(=O)CCN4CCCC4)cc3nc3cc(NC(=O)CCN4CCCC4)ccc23)cc1
IC50 (second compound 0.0316 µM): > 10 µM
IC50 (second compound 0.1 µM): > 10 µM
IC50 (second compound 0.316 µM): > 10 µM
IC50 (second compound 1 µM): > 10 µM
IC50 (second compound 3.16 µM): > 10 µM
IC50 (second compound 10 µM): < 0.0316 µM
viability, T/C [1]: 98.5%
viability, T/C [2]: 146%
viability, T/C [3]: 119%
viability, T/C [4]: 97.6%
viability, T/C [5]: 100%
viability, T/C [6]: 105%
viability, T/C [7]: 111%
viability, T/C [8]: 109%
viability, T/C [9]: 111%
viability, T/C [10]: 138%
viability, T/C [11]: 115%
viability, T/C [12]: 173%
viability, T/C [13]: 159%
viability, T/C [14]: 106%
viability, T/C [15]: 123%
viability, T/C [16]: 120%
viability, T/C [17]: 111%
viability, T/C [18]: 103%
viability, T/C [19]: 122%
viability, T/C [20]: 101%
viability, T/C [21]: 149%
viability, T/C [22]: 99.8%
viability, T/C [23]: 145%
viability, T/C [24]: 109%
viability, T/C [25]: 69.4%
viability, T/C [26]: 98.3%
viability, T/C [27]: 114%
viability, T/C [28]: 113%
viability, T/C [29]: 102%
viability, T/C [30]: 87.1%
viability, T/C [31]: 30.8%
viability, T/C [32]: 45.6%
viability, T/C [33]: 54%
viability, T/C [34]: 71.5%
viability, T/C [35]: 70.9%
viability, T/C [36]: 30.2%

CC[C@@]1(O)C(=O)OCc2c1cc1n(c2=O)Cc2cc3c(CN(C)C)c(O)ccc3nc2-1 + CN(C)c1ccc(Nc2c3ccc(NC(=O)CCN4CCCC4)cc3nc3cc(NC(=O)CCN4CCCC4)ccc23)cc1
IC50 (second compound 0.0316 µM): > 0.316 µM
IC50 (second compound 0.1 µM): > 0.316 µM
IC50 (second compound 0.316 µM): > 0.316 µM
IC50 (second compound 1 µM): > 0.316 µM
IC50 (second compound 3.16 µM): 0.0725 µM
IC50 (second compound 10 µM): < 0.000999 µM
viability, T/C (second compound 0.0316 µM, first compound 0.000999 µM): 110%
viability, T/C (second compound 0.0316 µM, first compound 0.00316 µM): 96.6%
viability, T/C (second compound 0.0316 µM, first compound 0.00999 µM): 116%
viability, T/C [1]: 87.2%
viability, T/C (second compound 0.0316 µM, first compound 0.0999 µM): 67.5%
viability, T/C [3]: 88.7%
viability, T/C (second compound 0.1 µM, first compound 0.000999 µM): 119%
viability, T/C (second compound 0.1 µM, first compound 0.00316 µM): 111%
viability, T/C (second compound 0.1 µM, first compound 0.00999 µM): 101%
viability, T/C [7]: 84.6%
viability, T/C (second compound 0.1 µM, first compound 0.0999 µM): 76.1%
viability, T/C [9]: 77.2%
viability, T/C (second compound 0.316 µM, first compound 0.000999 µM): 108%
viability, T/C (second compound 0.316 µM, first compound 0.00316 µM): 99.6%
viability, T/C (second compound 0.316 µM, first compound 0.00999 µM): 87.5%
viability, T/C [13]: 64.2%
viability, T/C (second compound 0.316 µM, first compound 0.0999 µM): 73.7%
viability, T/C [15]: 74.2%
viability, T/C (second compound 1 µM, first compound 0.000999 µM): 88.4%
viability, T/C (second compound 1 µM, first compound 0.00316 µM): 99.3%
viability, T/C (second compound 1 µM, first compound 0.00999 µM): 87.8%
viability, T/C [19]: 81.5%
viability, T/C (second compound 1 µM, first compound 0.0999 µM): 82.3%
viability, T/C [21]: 84.1%
viability, T/C (second compound 3.16 µM, first compound 0.000999 µM): 75.2%
viability, T/C (second compound 3.16 µM, first compound 0.00316 µM): 62.8%
viability, T/C (second compound 3.16 µM, first compound 0.00999 µM): 78.6%
viability, T/C [25]: 63.4%
viability, T/C (second compound 3.16 µM, first compound 0.0999 µM): 45.3%
viability, T/C [27]: 44.3%
viability, T/C (second compound 10 µM, first compound 0.000999 µM): 39.9%
viability, T/C (second compound 10 µM, first compound 0.00316 µM): 40.5%
viability, T/C (second compound 10 µM, first compound 0.00999 µM): 33.6%
viability, T/C [31]: 36.5%
viability, T/C (second compound 10 µM, first compound 0.0999 µM): 29.8%
viability, T/C [33]: 22%
